Measurements as given in patent publication US6979553B2, “Use of Nernstein voltage sensitive dyes in measuring transmembrane voltage” (Caliper Life Sciences, Inc., priority 1999, dated 2005).
Structures can show the parent of a compound that is named as a salt. Where two headings read alike, the source gives them in different places.

Key:
[1] = tested on: peripheral blood T lymphocytes; format: cell-based, human; settings: for change in DiBAC4(3)/Syto 62 ratio (depolarization): resting T lymphocytes
Description: Resting or mitogen activated peripheral blood T lymphocytes (90% CD3+) were flowed through the chip and mixed with ion channel modulators accessed through the Sipper™ capillary. Average DiBAC4(3)/Syto 62 ratios ±SE (n=2–6) are shown.
Thus, cell based assays of calcium flux and membrane potential were run in the lab-on-a-chip system. A novel approach for measurement of membrane potential was used to detect hyperpolarization and depolarization with high sensitivity. The microfluidic format reduced reagent, sample and cell consumption. As few as 50–200 cells and as little as 10 nl of sample were used per test. […]

THP-1 cells [2] = assay: Lab-on-a-chip membrane potential assay, uptake of DiBAC4(3) and Syto 62 by THP-1 cells; format: cell-based
Description: The microfluidic technology used in the LabChip® system for this example utilizes microchannels etched into quartz chips coupled with a sampling micropipette that can access samples from microtitre plates. The LabChip® system accesses liquid samples sequentially from a microplate, mixes the samples with cells flowing through a microchannel and reads out cellular responses using fluorescence detection. The system was applied to the measurement of changes in transmembrane potential. […].
As show in FIG. 8, panel A and panel B, the lab-on-a-chip system which was used consisted of quartz chip 801 containing microchannels 803 and 805 connected to Sipper™ capillary 807, robot 809 to move microplate 811, light source 813, optics 815 and fluorescence reader 817, vacuum pump 816, and a computer to control system functions and record data. Light from light source 813 (e.g., mercury arc lamp (470 nm) or an argon ion laser) was focused onto microchip 801 with through optics 815 comprising an objective (10×, 0.3 NA air). Fluorescence was collected with the objective, split into two channels (525 nm and 700 nm) and detected with fluorescence reader 817 which comprises photodiodes. Fluorescence readings were acquired at 20–90 Hz. The three axis robot 809 was used to position microplate 811 so that chip 801 could sample microplate 811, whether in a 96 or 384 well configuration.
A schematic of chip 801 with 90×20 μm channels is shown in FIG. 8, panel B. Flowing cells from cell well 819 were mixed with samples introduced through the Sipper™ capillary 807 (20 μm ID). The flow rate in the detection channel was varied from 2 to 10 nl/s by varying the vacuum applied to waste well 821. Agonists or dyes were added from side well 823. The incubation time in detection channel 803 was varied between 10 and 75 seconds by varying the applied pressure and the location of detector elements (e.g., optics 815) relative to chip 801.
As shown in panel A, the potential sensitive fluorescence signal was derived not from the slow re-equilibration of dyes that were pre-loaded into cells but rather from the rate of uptake of charged, membrane-permeable dyes. Using both an anionic dye, DiBAC4(3), and a cationic dye, Syto 62, yielded a ratiometric measurement with increased sensitivity. Cells were mixed on chip with test samples and dyes stored on the chip. After a short incubation in the detection channel, the fluorescence of individual cells was detected.
As shown in panel B, peaks in green (DiBAC) and red (Syto 62) fluorescence corresponded to THP-1 cells mixed with either buffer, UTP or quinidine sulfate flowing past the detector following a 75 second dye incubation.
As shown in panels C and D, the rate of uptake of DiBAC4(3) (C) and Syto 62 (D) was determined from the average fluorescence peak height as a function of the incubation time for resting cells (∘), cells hyperpolarized with UTP (▪) and cells depolarized with quinidine sulfate (Δ). Compared to resting cells, the rate of increase of DiBAC4(3) peak heights was 48±11% (mean±se, n=5) higher for depolarized cells and 43±5% lower for hyperpolarized cells. Similarly, the rate of increase of the Syto 62 peaks was 7±2% lower for depolarized cells and 37±3% higher for hyperpolarized cells.
As shown in panel A, a calibration curve relating the ratio of DiBAC4(3)/Syto 62 fluorescence (n=20 to 130 cells) to membrane potential was constructed by increasing the K+ conductance of the THP-1 cells and varying the extracellular K+ concentration. […]

THP-1 cells [3] = assay: Transmembrane potential assay on Caliper 3B5 microfluidic processor, THP-1 cells; format: cell-based; settings: 50 μM UTP in high sodium buffer, resting approximately −40 mV
Procedure: Changes in the cell transmembrane potential were detected in microfluidic processor by the mixing of cells and the dyes DiBAC4(3) and SYTO62. […] Dye uptake by THP-1 cells was measured on a Caliper® 3B5 microfluidic processor (FIG. 5). One of the long channels of the processor contained THP-1 cells (3×10^6 cells/ml) suspended in high sodium buffer as above, while the other long channel contained 400 nM DiBAC4(3) and 10 μM SYTO62 in high sodium buffer. Transmembrane potential was set to resting potential, hyperpolarization or depolarization by placing either high sodium, 50 μM UTP in high sodium or high potassium buffer in the short arm. Resting, hyperpolarized and depolarized potentials are estimated to be approximately −40, −100 and 0 mV respectively. The microfluidic processor was maintained at room temperature (˜23° C.). DiBAC4(3) and SYTO62 fluorescence was read after the cells had traveled approximately 90 seconds from the junction (ΔP˜1″H2O). Panel A depicts the average fluorescence ratio (DiBAC4(3)/SYTO62) for runs of ˜80 cells each. Error bars are standard error values. As shown in panel B, Histograms show the expected voltage dependent changes in the fluorescence intensities of individual cells as a function of transmembrane potential.

margatoxin (TIINVKCTSPKQCLPPCKAQFGQSAGAKCMNGKCKCYPH; UniProt P40755 1-39, looked up)
change in DiBAC4(3)/Syto 62 ratio (depolarization) ([1]; 36 μM, p<0.05): significant increase in DiBAC4(3)/Syto 62 ratio

C=C[C@H]1C[N@@]2CC[C@H]1C[C@@H]2[C@@H](O)c1ccnc2ccc(OC)cc12 [quinidine sulfate]
change in the average DiBAC4(3)/Syto 62 ratio (THP-1 cells [2]; average±SD, n=3): dose dependent depolarization | rate of increase of the Syto 62 peaks, lower compared to resting cells (THP-1 cells [2]; depolarized cells): 7±2% | rate of increase of DiBAC4(3) peak heights, higher compared to resting cells (THP-1 cells [2]; depolarized cells, mean±se, n=5): 48±11%

Clc1ccccc1C(c1ccccc1)(c1ccccc1)n1ccnc1 [clotrimazole]
change in DiBAC4(3)/Syto 62 ratio ([1]; mitogen activated T lymphocytes in the presence of ionomycin, 30 μM, p<0.05): ratio increases significantly | change in DiBAC4(3)/Syto 62 ratio (depolarization) ([1]; 30 μM): not

C[C@H](CCC(=O)O)C[C@H](C)C[C@H](C)C(=O)/C=C(\O)[C@H](C)C[C@H](C)C/C=C/[C@@H](C)[C@@H](O)[C@@H](C)[C@@H](O)C[C@@H]1CC[C@@](C)([C@H]2CC[C@@](C)([C@@H](C)O)O2)O1 [ionomycin]
DiBAC4(3)/Syto 62 ratio (hyperpolarization) ([1]; mitogen activated T lymphocytes in the presence of ionomycin, compared to resting T lymphocytes, p<0.05): lower ratio compared to resting T lymphocytes | change in DiBAC4(3)/Syto 62 ratio (depolarization) ([1]; 15 μM): not

O=c1ccn([C@@H]2O[C@H](COP(=O)(O)OP(=O)(O)OP(=O)(O)O)[C@@H](O)[C@H]2O)c(=O)[nH]1 [UTP]
rate of increase of DiBAC4(3) peak heights, lower compared to resting cells (THP-1 cells [2]; hyperpolarized cells): 43±5% | rate of increase of the Syto 62 peaks, higher compared to resting cells (THP-1 cells [2]; hyperpolarized cells): 37±3% | transmembrane potential (hyperpolarized), estimated (THP-1 cells [3]): ~−100 mV
